The text below walks through data of patent publication US20240327709A1, “NON-LAMELLAR LIQUID CRYSTAL-FORMING COMPOSITION AND USE THEREOF” (FARNEX INCORPORATED, priority 2021, published 2024).

Series [1] is described as follows: SAXS liquid crystal structure analysis of gel compositions. The series is classed as physicochemical. The note with it: amphiphilic compound mixed with water alone. The text has this: The gel compositions formed from the precursor formulations Nos. 1 to 23 were each directly embedded in a pinhole slit and subjected to small-angle X-ray scattering diffractometry with a small-angle x-ray scattering (SAXS) apparatus (manufactured by Rigaku Corp., Nano-Viewer) to analyze the non-lamellar liquid crystal structure.
The obtained liquid crystal phases and scattering vector values q1 [nm^−1] of peaks located at the smallest angle are shown in Tables 1 and 2. […] There were some gel compositions having two types of different liquid crystal phases.

The nature of series [2]: Gel formation test with water. The series is classed as physicochemical. The note with it: amphiphilic compound mixed with water alone, no phospholipid. As to the method: The precursor formulations Nos. 1 to 23 were subjected to gel formation test. A portion (about 100 to 300 mg) of each precursor formulation was added to an excess amount (about 0.5 to 2 mL) of water for injection in a vial, and the whole was mixed at room temperature (25° C.) with a spatula and/or a vortex mixer.
The precursor formulations Nos. 26 to 31 were subjected to gel formation test in a similar manner to that in Example 2.
The precursor formulations Nos. 36 to 40 were subjected to gel formation test. A portion (about 100 to 300 mg) of each precursor formulation was added to an excess amount (about 0.5 to 2 mL) of water for injection in a vial, and the whole was mixed at room temperature (25° C.) with a spatula and/or a vortex mixer.

`CCCCCCCC/C=C\CCCCCCCC(=O)OCCOCCO` [diethylene glycol monooleate, Diethylene glycol monooleate]: in series [1], the liquid crystal phase result is on record as “HII” and the q1 was determined as 1.35 nm⁻¹. Also, in series [2], the gel composition formation entry is “formed a gel composition”.
Take `CCCCC/C=C\C/C=C\CCCCCCCC(=O)OC1COC2C(O)COC12` (stereo not drawn) [isosorbide monolinoleate]: the gel composition formation entry in series [2] is given as “failed to form a gel composition”.
Still for that read-out and setting: the same measure for `CCCCC/C=C\C/C=C\CCCCCCCC(=O)OCCC(C)(C)O` [3-methyl-1,3-butanediol monolinoleate]: “failed to form a gel composition”.
For `CCCCC/C=C\C/C=C\CCCCCCCC(=O)OCCC(C)O` (stereo not drawn) [1,3-Butylene glycol monolinoleate], the gel composition formation result in series [2] is reported as “failed to form a gel composition”.
